Test results as given in PubChem BioAssay AID1259407 (Chemical Carcinogenesis Research Information System (CCRIS), 2018).
Calls of active or inactive are those of the source. The rule behind the calls is not given here.

System: CCRIS mutagenicity, Ames/micronucleus/aberration tests
Assay: CCRIS mutagenicity studies
Conditions: Test System: AMES SALMONELLA TYPHIMURIUM
[1] = Strain/Indicator: TA98, Metabolic Activation: NONE, Method: STANDARD PLATE
[2] = Strain/Indicator: TA98, Metabolic Activation: RAT, LIVER, S-9, AROCLOR 1254, Method: STANDARD PLATE

N#CC(Cl)(Cl)Cl
mutagenic call (Strain/Indicator: TA98, Metabolic Activation: NONE, Method: FLUCTUATION (MICROTITER)): inactive; negative | mutagenic call [1]: inactive; negative | mutagenic call (Strain/Indicator: TA98, Metabolic Activation: RAT LIVER S-9, AROCLOR 1254, Method: FLUCTUATION (MICROTITER)): inactive; negative | mutagenic call [2]: inactive; negative | mutagenic call (Strain/Indicator: TA100, Metabolic Activation: NONE, Method: FLUCTUATION TEST): active; positive | mutagenic call (Strain/Indicator: TA100, Metabolic Activation: NONE, Method: STANDARD PLATE): inactive; negative | mutagenic call (Strain/Indicator: TA100, Metabolic Activation: RAT, LIVER, S-9, AROCLOR 1254, Method: FLUCTUATION TEST): inactive; negative | mutagenic call (Strain/Indicator: TA100, Metabolic Activation: RAT, LIVER, S-9, AROCLOR 1254, Method: STANDARD PLATE): inactive; negative | mutagenic call (Strain/Indicator: TA1535, Metabolic Activation: NONE, Method: STANDARD PLATE): inactive; negative | mutagenic call (Strain/Indicator: TA1535, Metabolic Activation: RAT, LIVER, S-9, AROCLOR 1254, Method: STANDARD PLATE): inactive; negative | mutagenic call (Strain/Indicator: TA1537, Metabolic Activation: NONE, Method: FLUCTUATION (MICROTITER)): inactive; negative | mutagenic call (Strain/Indicator: TA1537, Metabolic Activation: RAT LIVER S-9, AROCLOR 1254, Method: FLUCTUATION (MICROTITER)): inactive; negative | mutagenic call (Strain/Indicator: TA7001, Metabolic Activation: NONE, Method: FLUCTUATION (MICROTITER)): inactive; negative | mutagenic call (Strain/Indicator: TA7001, Metabolic Activation: RAT LIVER S-9, AROCLOR 1254, Method: FLUCTUATION (MICROTITER)): inactive; negative | mutagenic call (Strain/Indicator: TA7002, Metabolic Activation: NONE, Method: FLUCTUATION (MICROTITER)): inactive; negative | mutagenic call (Strain/Indicator: TA7002, Metabolic Activation: RAT LIVER S-9, AROCLOR 1254, Method: FLUCTUATION (MICROTITER)): inactive; negative | mutagenic call (Strain/Indicator: TA7003, Metabolic Activation: NONE, Method: FLUCTUATION (MICROTITER)): inactive; negative | mutagenic call (Strain/Indicator: TA7003, Metabolic Activation: RAT LIVER S-9, AROCLOR 1254, Method: FLUCTUATION (MICROTITER)): inactive; negative | mutagenic call (Strain/Indicator: TA7004, Metabolic Activation: NONE, Method: FLUCTUATION (MICROTITER)): inactive; negative | mutagenic call (Strain/Indicator: TA7004, Metabolic Activation: RAT LIVER S-9, AROCLOR 1254, Method: FLUCTUATION (MICROTITER)): inactive; negative | mutagenic call (Strain/Indicator: TA7005, Metabolic Activation: NONE, Method: FLUCTUATION (MICROTITER)): inactive; negative | mutagenic call (Strain/Indicator: TA7005, Metabolic Activation: RAT LIVER S-9, AROCLOR 1254, Method: FLUCTUATION (MICROTITER)): inactive; negative | mutagenic call (Strain/Indicator: TA7006, Metabolic Activation: NONE, Method: FLUCTUATION (MICROTITER)): inactive; negative | mutagenic call (Strain/Indicator: TA7006, Metabolic Activation: RAT LIVER S-9, AROCLOR 1254, Method: FLUCTUATION (MICROTITER)): inactive; negative

O=C1CCCc2cc3c(cc21)c([N+](=O)[O-])cc1ccccc13
mutagenic call (Strain/Indicator: TA98-1,8-DNP6, Metabolic Activation: NONE): inactive; negative | mutagenic call (Strain/Indicator: TA98-1,8-DNP6, Metabolic Activation: S-9): inactive; negative | mutagenic call (Strain/Indicator: TA98, Metabolic Activation: NONE): active; positive | mutagenic call (Strain/Indicator: TA98, Metabolic Activation: S-9): active; positive | mutagenic call (Strain/Indicator: TA98NR, Metabolic Activation: NONE): inactive; negative | mutagenic call (Strain/Indicator: TA98NR, Metabolic Activation: S-9): inactive; negative | mutagenic call (Strain/Indicator: TA100, Metabolic Activation: NONE): active; positive | mutagenic call (Strain/Indicator: TA100, Metabolic Activation: S-9): active; positive | mutagenic call (Strain/Indicator: TA100NR, Metabolic Activation: NONE): active; positive | mutagenic call (Strain/Indicator: TA100NR, Metabolic Activation: S-9): active; positive

c1cc2ccc3cc4ccoc4c4ccc(c1)c2c34
mutagenic call [1]: inactive; negative | mutagenic call [2]: active; positive

Cc1cc(C)cc(NO)c1
mutagenic call (Strain/Indicator: TA100, Metabolic Activation: RAT, LIVER, S-9, PCB, Method: PREINCUBATION): active; positive
